Experimental data taken from patent US9353104B2, “Substituted pyridizinone derivatives as PDE10 inhibitors” (priority 2013, dated 2016).

Biological target: human PDE10A2 (Homo sapiens (Human), UniProt Q9Y233)
Experiment: PDE10 fluorescence polarization (IMAP FP) inhibition assay
Assay type: biochemical
Conditions: human PDE10A2 lysate, FAM-labeled cAMP 50 nM, room temperature; read-out: PDE10A Ki
Description: The activity of the compounds in accordance with the present invention as PDE10 inhibitors may be readily determined without undue experimentation using a fluorescence polarization (FP) methodology that is well known in the art (Huang, W., et al., J. Biomol Screen, 2002, 7: 215). […] In a typical experiment the PDE10 inhibitory activity of the compounds of the present invention was determined in accordance with the following experimental method. PDE10A2 was amplified from human fetal brain cDNA (Clontech, Mountain View, Calif.) using a forward primer corresponding to nucleotides 56-77 of human PDE10A2 (Accession No. AF127480, Genbank Identifier 4894716), containing a Kozak consensus sequence, and a reverse primer corresponding to nucleotides 2406-2413 of human PDE10A2 (Accession No. AF127480, Genbank Identifier 4894716). Amplification with Easy-A polymerase (Stratagene, La Jolla, Calif.) was 95° C. for 2 minutes followed by thirty three cycles of 95° C. for 40 seconds, 55° C. for 30 seconds, and 72° C. for 2 minutes 48 seconds. Final extension was 72° C. for 7 minutes. The PCR product was TA cloned into pcDNA3.2-TOPO (Invitrogen, Carlsbad, Calif.) according to standard protocol. AD293 cells with 70-80% confluency were transiently transfected with human PDE10A2/pcDNA3.2-TOPO using Lipofectamine 2000 according to manufacturer specifications (Invitrogen, Carlsbad, Calif.). Cells were harvested 48 hours post-transfection and lysed by sonication (setting 3, 10×5 sec pulses) in a buffer containing 20 mM HEPES, 1 mM EDTA and protease inhibitor cocktail (Roche). Lysate was collected by centrifugation at 75,000×g for 20 minutes. Supernatant containing the cytoplasmic fraction was used for evaluation of PDE10A2 activity. The fluorescence polarization assay for cyclic nucleotide phosphodiesterases was performed using an IMAP® FP kit supplied by Molecular Devices, Sunnyvale, Calif. (product #R8139). IMAP® technology has been applied previously to phosphodiesterase assays (Huang, W., et al., J. Biomol Screen, 2002, 7: 215). Assays were performed at room temperature in 384-well microtiter plates with an incubation volume of 20.2 μL. Solutions of test compounds were prepared in DMSO and serially diluted with DMSO to yield 8 μL of each of 10 solutions differing by 3-fold in concentration, at 32 serial dilutions per plate. 100% inhibition is determined using a known PDE10 inhibitor, which can be any compound that is present at 5,000 times its Ki value in the assay described as follows, such as papaverine (see Siuciak, et al. Neuropharmacology (2006) 51:386-396; Becker, et al. Behav Brain Res (2008) 186(2):155-60; Threlfell, et al., J Pharmacol Exp Ther (2009) 328(3):785-795), 2-{4-[pyridin-4-yl-1-(2,2,2-trifluoroethyl)-1H-pyrazol-3-yl]phenoxymethyl}quinoline succinic acid or 2-[4-(1-methyl-4-pyridin-4-yl-1H-pyrazol-3-yl)-phenoxymethyl]quinoline succinic acid (see Schmidt, et al. J Pharmacol Exp Ther (2008) 325:681-690; Threlfell, et al., J Pharmacol Exp Ther (2009) 328(3): 785-795). 0% of inhibition is determined by using DMSO (1% final concentrations).
A Labcyte Echo 555 (Labcyte, Sunnyvale, Calif.) is used to dispense 200 nL from each well of the titration plate to the 384 well assay plate. A solution of enzyme (1/1600 dilution from aliquots; sufficient to produce 20% substrate conversion) and a separate solution of FAM-labeled cAMP PDE from Molecular Devices (product #R7506), at a final concentration of 50 nM are made in the assay buffer (10 mM Tris HCl, pH 7.2, 10 mM MgCl2, 0.05% NaN3 0.01% Tween-20, and 1 mM DTT). The enzyme and the substrate are then added to the assay plates in two consecutive additions of 10 μL, and then shaken to mix. The reaction is allowed to proceed at room temperature for 30 minutes. A binding solution is then made from the kit components, comprised of 80% Solution A, 20% Solution B and binding reagent at a volume of 1/600 the total binding solution.

Sequence of human PDE10A2 (Q9Y233 267-1055): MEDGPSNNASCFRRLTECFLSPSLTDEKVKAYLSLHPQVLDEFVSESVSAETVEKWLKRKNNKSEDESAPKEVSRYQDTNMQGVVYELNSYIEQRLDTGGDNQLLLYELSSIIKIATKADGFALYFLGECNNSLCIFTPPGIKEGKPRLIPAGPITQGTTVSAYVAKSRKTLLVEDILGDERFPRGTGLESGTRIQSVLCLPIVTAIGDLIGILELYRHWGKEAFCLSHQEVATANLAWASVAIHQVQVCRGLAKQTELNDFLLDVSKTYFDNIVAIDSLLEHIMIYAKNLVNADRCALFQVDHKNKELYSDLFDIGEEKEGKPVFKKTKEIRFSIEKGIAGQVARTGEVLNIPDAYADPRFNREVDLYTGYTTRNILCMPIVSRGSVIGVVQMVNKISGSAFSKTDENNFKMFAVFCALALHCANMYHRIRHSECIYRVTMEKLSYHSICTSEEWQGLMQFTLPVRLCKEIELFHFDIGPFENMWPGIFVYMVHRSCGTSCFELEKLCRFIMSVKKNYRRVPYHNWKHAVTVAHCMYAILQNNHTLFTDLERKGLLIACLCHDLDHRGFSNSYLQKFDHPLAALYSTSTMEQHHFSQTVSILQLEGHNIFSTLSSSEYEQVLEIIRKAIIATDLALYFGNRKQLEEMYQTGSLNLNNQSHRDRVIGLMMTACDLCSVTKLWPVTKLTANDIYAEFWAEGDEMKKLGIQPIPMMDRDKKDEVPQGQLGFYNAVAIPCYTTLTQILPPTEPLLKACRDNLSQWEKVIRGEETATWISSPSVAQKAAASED

Structure (SMILES)	Ki
Cc1ccc(CNc2cc(OC[C@H]3C[C@@H]3c3ccc4ccccc4n3)nn(C)c2=O)c(C)n1 [Example 57, 4-(((2,6-dimethylpyridin-3-yl)methyl)amino)-2-methyl-6-(((1S,2S)-2-(quinolin-2-yl)cyclopropyl)methoxy)-pyridazin-3(2H)-one]	0.004 nM
Cc1ccc(CNc2cc(OC[C@H]3C[C@@H]3c3ccc(OC(F)F)cn3)nn(C)c2=O)c(C)n1 [Example 58, 6-(((1S,2S)-2-(5-(difluoromethoxy)pyridin-2-yl)cyclopropyl)-methoxy)-4-(((2,6-di-methylpyridin-3-yl)-methyl)amino)-2-methyl-pyridazin-3(2H)-one]	0.028 nM
COc1ccc([C@H]2C[C@@H]2COc2cc(NCc3c(C)noc3C)c(=O)n(C)n2)nc1 [Example 59, 4-(((3,5-dimethylisoxazol-4-yl)methyl)amino)-6-(((1S,2S)-2-(5-methoxy-pyridin-2-yl)cyclopropyl-)-methoxy)-2-methyl-pyridazin-3(2H)-one]	0.38 nM
Cc1noc(C)c1CNc1cc(OC[C@H]2C[C@@H]2c2ccn(C)n2)nn(C)c1=O [Example 61, 4-(((3,5-dimethylisoxazol-4-yl)methyl)amino)-2-methyl-6-(((1S,2S)-2-(1-methyl-1H-pyrazol-3-yl)cyclopropyl)methoxy)-pyridazin-3(2H)-one]	4.1 nM
COc1ccc([C@H]2C[C@@H]2COc2cc(NCc3ccnc(C)c3)c(=O)n(C)n2)nc1 [Example 62, 6-(((1S,2S)-2-(5-methoxy-pyridin-2-yl)cyclopropyl-)-methoxy)-2-methyl-4-(((2-methylpyridin-4-yl)methyl)amino)pyridazin-3(2H)-one]	0.122 nM
COc1ccc([C@H]2C[C@@H]2COc2cc(NCc3cncnc3)c(=O)n(C)n2)nc1 [Example 63, 6-(((1S,2S)-2-(5-methoxy-pyridin-2-yl)cyclopropyl-)-methoxy)-2-methyl-4-((pyrimidin-5-ylmethyl)-amino)pyridazin-3(2H)one]	1.7 nM
COc1ccc([C@H]2C[C@@H]2COc2cc(NCc3ccc(C)nc3)c(=O)n(C)n2)nc1 [Example 64, 6-(((1S,2S)-2-(5-methoxy-pyridin-2-yl)cyclopropyl-)-methoxy)-2-methyl-4-(((6-methylpyridin-3-yl)methyl)amino)pyridazin-3(2H)-one]	0.025 nM
COc1ccc([C@H]2C[C@@H]2COc2cc(NCc3cccnc3C)c(=O)n(C)n2)nc1 [Example 65, 6-(((1S,2S)-2-(5-methoxy-pyridin-2-yl)cyclopropyl-)-methoxy)-2-methyl-4-(((2-methylpyridin-3-yl)-methyl)amino)pyridazin-3(2H)-one]	0.053 nM
COc1ccc([C@H]2C[C@@H]2COc2cc(NCc3cnccn3)c(=O)n(C)n2)nc1 [Example 66, 6-(((1S,2S)-2-(5-methoxypyridin-2-yl)cyclopropyl)methoxy)-2-methyl-4-((pyrazin-2-ylmethyl)amino)pyridazin-3(2H)-one]	5.7 nM
COc1ccc([C@H]2C[C@@H]2COc2cc(NCc3cncc(C)c3)c(=O)n(C)n2)nc1 [Example 67, 6-(((1S,2S)-2-(5-methoxypyridin-2-yl)cyclopropyl)methoxy)-2-methyl-4-(((5-methylpyridin-3-yl)methyl)amino)pyridazin-3(2H)-one]	0.049 nM
COc1ccc([C@H]2C[C@@H]2COc2cc(NCc3cccnc3)c(=O)n(C)n2)nc1 [Example 68, 6-(((1S,25)-2-(5-methoxy-pyridin-2-yl)cyclopropyl-)-methoxy)-2-methyl-4-((pyridin-3-ylmethyl)-amino)pyridazin-3(2H)one]	11.6 nM
COc1ccc([C@H]2C[C@@H]2COc2cc(NCc3ccc(C)c(C)n3)c(=O)n(C)n2)nc1 [Example 69, 4-(((5,6-dimethylpyridin-2-yl)methyl)amino)-6-(((1S,2S)-2-(5-methoxy-pyridin-2-yl)cyclopropyl-)-methoxy)-2-methyl-pyridazin-3(2H)-one]	0.41 nM
COc1ccc([C@H]2C[C@@H]2COc2cc(NCc3nc(C)ccc3F)c(=O)n(C)n2)nc1 [Example 70, 4-(((3-fluoro-6-methyl-pyridin-2-yl)methyl)-amino)-6-(((1S,2S)-2-(5-methoxypyridin-2-yl)-cyclopropyl)methoxy)-2-methylpyridazin-3(2H)one]	55.1 nM
COc1ccc([C@H]2C[C@@H]2COc2cc(NCc3nc(C)ccc3C)c(=O)n(C)n2)nc1 [Example 71, 4-(((3,6-dimethylpyridin-2-yl)methyl)amino)-6-(((1S,2S)-2-(5-methoxy-pyridin-2-yl)cyclopropyl-)-methoxy)-2-methylpyridazin-3(2H)one]	48.5 nM
COc1ccc([C@H]2C[C@@H]2COc2cc(NCc3ccc(C)cn3)c(=O)n(C)n2)nc1 [Example 72, 6-(((1S,2S)-2-(5-methoxy-pyridin-2-yl)cyclopropyl-)-methoxy)-2-methyl-4-(((5-methylpyridin-2-yl)-methyl)amino)pyridazin-3(2H)-one]	0.019 nM
COc1ccc([C@H]2C[C@@H]2COc2cc(NCc3ncccc3C)c(=O)n(C)n2)nc1 [Example 73, 6-(((1S,2S)-2-(5-methoxypyridin-2-yl)cyclopropyl)methoxy)-2-methyl-4-(((3-methyl-pyridin-2-yl)methyl)-amino)pyridazin-3(2H)one]	32.3 nM
COc1ccc([C@H]2C[C@@H]2COc2cc(NCc3ccc(F)c(C)n3)c(=O)n(C)n2)nc1 [Example 74, 4-(((5-fluoro-6-methyl-pyridin2yl)methyl)amino)-6-(((1S,2S)-2-(5-methoxy-pyridin-2-yl)cyclopropyl-)-methoxy)-2-methyl-pyridazin-3(2H)-one]	5.3 nM
COc1ccc([C@H]2C[C@@H]2COc2cc(NCc3ccc(Cl)c(C)n3)c(=O)n(C)n2)nc1 [Example 75, 4-(((5-chloro-6-methyl-pyridin-2-yl)methyl)-amino)-6-(((1S,2S)-2-(5-methoxypyridin-2-yl)cyclopropyl)methoxy)2-methylpyridazin-3(2H)one]	1.3 nM
COc1ccc([C@H]2C[C@@H]2COc2cc(NCc3ccc(C)nn3)c(=O)n(C)n2)nc1 [Example 76, 6-(((1S,2S)-2-(5-methoxy-pyridin-2-yl)cyclopropyl-)-methoxy)-2-methyl-4-(((6-methylpyridazin-3-yl)methyl)amino)pyridazin-3(2H)-one]	0.039 nM
COc1ccc(Cn2cc(CNc3cc(OC[C@H]4C[C@@H]4c4ccc(OC)cn4)nn(C)c3=O)c(C)n2)cc1 [Example 77, 4-((1-(4-methoxybenzyl)-3-methyl-1H-pyrazol-4-yl)methylamino)-6-(((1S,2S)-2-(5-methoxy-pyridin-2-yl)cyclopropyl)-methoxy)-2-methyl-pyridazin-3(2H)-one]	5.7 nM
Cc1ccc([C@H]2C[C@@H]2COc2cc(NCc3cnn4ccccc34)c(=O)n(C)n2)nc1 [Example 79, 2-methyl-6-(((1S,2S)-2-(5-methylpyridin-2-yl)cyclopropyl)methoxy)-4-((pyrazolo[1,5-a]pyridin-3-ylmethyl)amino)-pyridazin-3(2H)-one]	1.1 nM
CN(C)c1c(CNc2cc(OC[C@H]3C[C@@H]3c3ccn(C)n3)nn(C)c2=O)cnn1C [Example 82, 4-(((5-(dimethylamino)-1-methyl-1H-pyrazol-4-yl)methyl)amino)-2-methyl-6-(((1S,2S)-2-(1-methyl-1H-pyrazol-3-yl)cyclopropyl)methoxy)-pyridazin-3(2H)-one]	75 nM
